Activity calls are given as the source filed them. The calls are words filed in the database; no cut-off is given here.

The record followed here is ChEMBL document CHEMBL1140899, “Computational studies of epidermal growth factor receptor: docking reliability, three-dimensional quantitative structure-activity relationship analysis, and virtual screening studies” (J Med Chem, 2009).

One assay deals with T1, Epidermal growth factor receptor (Homo sapiens, UniProt P00533). In words: Inhibition of human recombinant EGFR at 100 uM.
T1 sequence (P00533 whole entry): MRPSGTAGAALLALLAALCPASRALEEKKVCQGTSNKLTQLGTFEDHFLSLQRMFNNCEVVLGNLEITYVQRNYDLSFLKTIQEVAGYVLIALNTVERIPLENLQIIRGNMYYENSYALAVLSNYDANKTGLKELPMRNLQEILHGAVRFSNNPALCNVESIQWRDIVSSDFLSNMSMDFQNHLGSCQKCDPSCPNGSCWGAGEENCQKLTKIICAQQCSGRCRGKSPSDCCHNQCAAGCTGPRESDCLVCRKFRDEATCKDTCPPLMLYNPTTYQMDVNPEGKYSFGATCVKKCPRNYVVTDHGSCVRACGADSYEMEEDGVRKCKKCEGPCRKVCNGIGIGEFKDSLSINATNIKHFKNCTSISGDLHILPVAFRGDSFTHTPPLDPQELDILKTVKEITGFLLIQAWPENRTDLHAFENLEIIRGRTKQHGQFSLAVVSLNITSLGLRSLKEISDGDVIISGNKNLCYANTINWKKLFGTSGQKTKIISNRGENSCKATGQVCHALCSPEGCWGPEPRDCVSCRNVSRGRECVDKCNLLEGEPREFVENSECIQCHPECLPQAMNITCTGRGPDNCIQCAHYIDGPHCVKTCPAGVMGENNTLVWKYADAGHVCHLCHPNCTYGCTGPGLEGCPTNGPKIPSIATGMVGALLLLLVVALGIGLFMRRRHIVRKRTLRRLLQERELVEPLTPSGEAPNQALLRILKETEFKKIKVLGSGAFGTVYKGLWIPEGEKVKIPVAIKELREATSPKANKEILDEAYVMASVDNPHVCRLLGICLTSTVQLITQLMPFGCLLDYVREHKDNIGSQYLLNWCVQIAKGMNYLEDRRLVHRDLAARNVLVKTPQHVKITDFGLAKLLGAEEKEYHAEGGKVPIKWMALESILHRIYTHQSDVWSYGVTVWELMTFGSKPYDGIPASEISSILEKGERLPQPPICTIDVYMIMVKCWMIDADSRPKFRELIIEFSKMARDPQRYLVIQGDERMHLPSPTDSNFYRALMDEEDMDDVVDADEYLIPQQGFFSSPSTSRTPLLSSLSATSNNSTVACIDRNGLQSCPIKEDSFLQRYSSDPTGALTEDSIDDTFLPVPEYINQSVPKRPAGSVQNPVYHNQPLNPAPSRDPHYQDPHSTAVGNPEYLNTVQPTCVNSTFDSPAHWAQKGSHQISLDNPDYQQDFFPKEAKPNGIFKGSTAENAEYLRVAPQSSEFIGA
Settings: not given
Regarding `Nc1ccc(Nc2ccc([N+](=O)[O-])c3ncnc(O)c23)cc1`, the inhibition (in general, how much of the control response was suppressed) worked out at 0%.

As to `Cc1cccc(Nc2ccc([N+](=O)[O-])c3ncnc(O)c23)c1`, the inhibition came to 0%.

With `O=[N+]([O-])c1ccc(N2CCCC2)c2c(O)ncnc12`, the inhibition is 0%. Same read-out and setting: next, `COc1ccc([N+](=O)[O-])c2ncnc(O)c12`: 0%.

Another assay deals with T1, Epidermal growth factor receptor.
Assay: not given
As to conditions: at 100 µM.
`CN1CCN(c2ccccc2/C=C2/C(=O)Nc3ccccc32)CC1` displayed an inhibition of 55%. Still for that read-out and setting: the result for `FC(F)(F)c1ccc(-n2cnnc2SCc2nc(COc3c(Cl)cccc3Cl)no2)cc1` reads 77%.

For the compound `O=c1[nH]nc2n1-c1ccccc1SC2`, the inhibition was found to be 48%. Still for that read-out and setting: the result for `CCOC(=O)c1ccc(N2CCOCC2)c(NS(=O)(=O)c2cc(Br)c(Cl)s2)c1` reads 80%; that for `CC1=NNC2OC(N)=C(C#N)C(c3ccc4c(c3)OCO4)C12` (stereo not drawn), 44%. `COc1cc2ncnc(Nc3cccc(C)c3)c2cc1OC` had an inhibition of 100%. Same read-out and setting: next, `O=c1[nH]nc(SCCS(=O)(=O)c2cccc(C(F)(F)F)c2)n1-c1ccc(OCc2ccccc2)cc1`: 53%.

A further assay has the same target.
Assay: not given
Settings: not given
Consider `FC(F)(F)c1ccc(-n2cnnc2SCc2nc(COc3c(Cl)cccc3Cl)no2)cc1`, for which 6300 nM corresponded to half-maximal inhibition (IC50). That is a single-digit micromolar value. Turning to `CCOC(=O)c1ccc(N2CCOCC2)c(NS(=O)(=O)c2cc(Br)c(Cl)s2)c1`, the IC50 (usually the concentration needed to halve the response being measured) stood at 11100 nM. In turn, `COc1cc2ncnc(Nc3cccc(C)c3)c2cc1OC` returned an IC50 of 4.6 nM. Compared with the last compound, the IC50 is about 2400-fold lower. Still for that read-out and setting: the result for `C=CC(=O)Nc1cc2ncnc(Nc3cccc(Cl)c3)c2cn1` reads 0.537 nM; that for `C=CC(=O)NC1=CC=C2N=CN=C(Nc3ccc(Oc4ccccc4)cc3)C21` (stereo not drawn), 5.75 nM.

Compound `COc1cc2ncnc(Nc3ccc(F)c(Cl)c3)c2cc1CN(C(C)C)[C@@H](C)C(N)=O` showed an IC50 below 1 nM. On the same count and under the same terms, next, `CN(C)c1cc2ncnc(Nc3cccc(Br)c3)c2cn1`: 0.0891 nM; `C=CC(=O)Nc1cc2c(Cc3cccc(Br)c3)ncnc2cc1OCCCn1ccnc1`: 3.02 nM; `C=CC(=O)Nc1nc2c(Cc3ccc(F)c(Cl)c3)ncnc2cc1OCCCN1CCC(C)CC1`: 6.61 nM. Same read-out and setting: next, `C/C=C/C(=O)Nc1cc2c(Nc3ccc(F)c(Cl)c3)ccnc2cc1CC`: 7500 nM; `O=C(CCn1ncc2cc3c(Nc4cccc(Br)c4)ncnc3cc21)N1CCOCC1`: 3.72 nM; `C=CC(=O)Nc1nc2c(Cc3ccc(F)c(Cl)c3)ncnc2cc1OCCOC`: 0.977 nM.

Compound `O=C(Nc1cccc(C(F)(F)F)c1)Nc1ncnc2nn3ccccc3c12` had an IC50 of 10000 nM. On the same count and under the same terms, the result for `C=CC(=O)Nc1ccc2ncnc(Cc3ccc(F)c(Br)c3)c2c1` reads 0.692 nM.

In the case of `C=CC(=O)Nc1ccc2ncnc(Cc3ccc(OCCN(C)C)c(Br)c3)c2c1`, the midpoint of inhibition, the IC50, lay at 26.9 nM. Still for that read-out and setting: next, `C=CC(=O)NC1=CC=C2N=CN=C(Nc3ccc(OCc4ccccc4)cc3)C21` (stereo not drawn): 3.63 nM. Same read-out and setting: the result for `C/C=C/C(=O)Nc1ccc2c(Nc3cccc(Br)c3)ncnc2c1` reads 0.676 nM; that for `O=C(Cc1c[nH]c2cc3ncnc(Nc4cccc(Br)c4)c3cc12)N1CCOCC1`, 4.79 nM; that for `C=CC(=O)Nc1nc2c(Cc3ccc(F)c(Cl)c3)ncnc2cc1CCCCN1CCOCC1`, 2.69 nM.

Consider `C=CC(=O)Nc1ccc2c(Nc3cccc(Br)c3)ncnc2c1`, for which the IC50 was 0.251 nM. Turning to `CC(=O)/C=C/C(=O)Cc1ccc2ncnc(Nc3cccc(Br)c3)c2c1`, the IC50 was 1.2 nM.

The target is the same in the next assay. Kind of assay: Inhibition of human recombinant EGFR up to 100 uM.
Settings: not given
As for `FC(F)(F)Oc1ccc(Nc2ccnc3cc(Cl)ccc23)cc1`, the outcome was inactive.
